Laboratory results reported in patent publication US4885170A, “Antibiotic A80509” (Eli Lilly and Company, priority 1988, dated 1989).
Positions of bridges follow the written chain, without caps; N, C: chain ends. Non-standard residues stand in square brackets, D forms with d. Residues, ends and D or L forms follow the SMILES beside them. *: point of attachment. Ileψ(thiazoline)Cys = CC[C@H](C)[C@H](N)C1=N[C@H](C(=O)*)CS1; dOrn = NCCC[C@@H](N)C(=O)O

Test system: Culture A80509
Experiment: resistance of culture A80509 to antibiotics, sensitivity discs on agar

CC[C@H](C)[C@H](N)C1=N[C@H](C(=O)N[C@@H](CC(C)C)C(=O)N[C@H](CCC(=O)O)C(=O)N[C@H](C(=O)N[C@H]2CCCCNC(=O)[C@H](CC(N)=O)NC(=O)[C@@H](CC(=O)O)NC(=O)[C@H](Cc3cnc[nH]3)NC(=O)[C@@H](Cc3ccccc3)NC(=O)[C@H]([C@@H](C)CC)NC(=O)[C@@H](CCCN)NC2=O)[C@@H](C)CC)CS1 [bacitracin] ({Ileψ(thiazoline)Cys}-L[dE]IK[dOrn]I[dF]H[dD]N; lactam 4-C)
resistance/sensitivity of culture A80509 (disc 10 units): sensitive

CC(=O)OCC1=C(C(=O)O)N2C(=O)[C@@H](NC(=O)Cc3cccs3)[C@H]2SC1 [cephalothin]
resistance/sensitivity of culture A80509 (disc 30 μg): resistant

CCC[C@@H]1C[C@@H](C(=O)N[C@@H]([C@H]2O[C@H](SC)[C@H](O)[C@@H](O)[C@H]2O)[C@@H](C)O)N(C)C1 [lincomycin]
resistance/sensitivity of culture A80509 (disc 2 μg): resistant

CO[C@H]1C[C@H](O[C@H]2[C@H](C)[C@@H](O[C@@H]3O[C@H](C)C[C@H](N(C)C)[C@H]3O)[C@@H](C)C[C@@]3(CO3)C(=O)[C@H](C)[C@@H](O)[C@@H](C)[C@@H](C)OC(=O)[C@@H]2C)O[C@@H](C)[C@@H]1O [oleandomycin]
resistance/sensitivity of culture A80509 (disc 15 μg): resistant

CC1(C)S[C@@H]2[C@H](NC(=O)Cc3ccccc3)C(=O)N2[C@H]1C(=O)O [penicillin G]
resistance/sensitivity of culture A80509 (disc 10 units): resistant

CO[C@H]1/C=C/O[C@@]2(C)Oc3c(C)c(O)c4c(O)c(c(/C=N/N5CCN(C)CC5)c(O)c4c3C2=O)NC(=O)/C(C)=C\C=C\[C@H](C)[C@H](O)[C@@H](C)[C@@H](O)[C@@H](C)[C@H](OC(C)=O)[C@@H]1C [rifampin]
resistance/sensitivity of culture A80509 (disc 5 μg): sensitive

[H]/N=C(/N)N[C@H]1[C@H](O)[C@@H](O)[C@H](O[C@@H]2O[C@@H](C)[C@](O)(C=O)[C@H]2O[C@@H]2O[C@@H](CO)[C@H](O)[C@@H](O)[C@@H]2NC)[C@@H](N/C(N)=N\[H])[C@@H]1O [streptomycin]
resistance/sensitivity of culture A80509 (disc 10 μg): sensitive

CN(C)C1C(=O)C(C(N)=O)=C(O)C2(O)C(=O)C3=C(O)c4c(O)cccc4C(C)(O)C3CC12 (stereo not drawn) [tetracycline]
resistance/sensitivity of culture A80509 (disc 30 μg): sensitive

NC[C@H]1O[C@H](O[C@H]2[C@H](O)[C@@H](O[C@H]3O[C@H](CO)[C@@H](O)[C@H](N)[C@H]3O)[C@H](N)C[C@@H]2N)[C@H](N)C[C@@H]1O [tobramycin]
resistance/sensitivity of culture A80509 (disc 10 μg): sensitive

CN[C@H](CC(C)C)C(=O)N[C@H]1C(=O)N[C@@H](CC(N)=O)C(=O)N[C@H]2C(=O)N[C@H]3C(=O)N[C@H](C(=O)N[C@H](C(=O)O)c4cc(O)cc(O)c4-c4cc3ccc4O)[C@H](O)c3ccc(c(Cl)c3)Oc3cc2cc(c3O[C@@H]2O[C@H](CO)[C@@H](O)[C@H](O)[C@H]2O[C@H]2C[C@](C)(N)[C@H](O)[C@H](C)O2)Oc2ccc(cc2Cl)[C@H]1O [vancomycin]
resistance/sensitivity of culture A80509 (disc 30 μg): sensitive

gentamicin
resistance/sensitivity of culture A80509 (disc 10 μg): sensitive

neomycin
resistance/sensitivity of culture A80509 (disc 30 μg): sensitive
